Data taken from patent US20250275976A1, “Methods of Treating Neuroinflammatory Conditions” (Athira Pharma, Inc., priority 2022, published 2025).
“Also recorded” adds a separate entry of the source. Where two headings read alike, the source gives them in different places.

Legend:
[1] = tested on: male CD-1 mice; experiment: T-maze spontaneous alternation, LPS-induced cognitive deficit; type: in vivo, mouse; conditions: for Spontaneous alternation (%) Mean: LPS 250 μg/kg i.p.; for Recovery (%): saline/vehicle = 100%, LPS/vehicle = 0%
Excerpt: Encephalitis refers to inflammation of the brain that may result in brain swelling fever, headache, confusion, and seizures. The source of neuroinflammation can vary widely, including due to viral, bacterial, parasitic, or fungal infection or due to autoimmune diseases. Lipopolysaccharide (LPS) is a bacterial endotoxin that induces an intense neuroinflammatory reaction and has been associated with cognitive decline. The ability of Compound A19 to reverse cognitive decline induced by LPS in a mouse model of encephalitis was studied using a T-maze assay. In a separate substantially similar assay, Compounds 1a and 5a were also assessed.
Spontaneous and continuous alternation is the innate tendency of rodents to alternate free choices in a T-maze (T-CAT) over a series of successive runs. This sequential procedure relies on working memory and is sensitive to various pharmacological manipulations affecting memory processes. The present studies were conducted to evaluate the abilities of Compound A19, Compound 1a and Compound 5a to reverse LPS-induced cognitive deficit in the T-maze assay.
Compound A19 was dissolved in 0.9% NaCl (saline) and vortexed periodically until complete dissolution and with the pH adjusted between 7.4 and 7.8. Compound A19 was used in concentrations of 0.125, 0.1, 0.05, 0.025 and 0.0125 mg/ml which when given in a volume of 10 ml/kg result in doses of 1.25, 1, 0.5, 0.25 and 0.125 mg/kg, respectively. Compound 1a was dissolved at 160 mg/ml in 100% DMSO and vortexed until complete dissolution. Then the above stock solution was diluted in 20% PEG-400 and 78% 0.9% NaCl, whereby the stock solution comprised 2% of the final solution. Compound 1a was used in concentrations of 0.05, 0.2, 0.8, 1.6 and 3.2 mg/ml which when given in a volume of 10 ml/kg result in doses of 0.5, 2, 8, 16 and 32 mg/kg, respectively. Compound 5a was dissolved at 100 mg/ml in 100% DMSO and vortexed until complete dissolution. Then the above stock solution was diluted in 20% PEG-400 and 78% 0.9% NaCl, whereby the stock solution comprised 2% of the final solution. Compound 5a was used in concentrations of 0.125, 0.25, 0.5, 1 and 2 mg/ml which when given in a volume of 10 ml/kg result in doses of 1.25, 2.5, 5, 10 and 20 mg/kg, respectively.
Memantine was dissolved in saline. Memantine was used in concentration of 0.1 and 0.01 mg/ml, which when given in a volume of 10 ml/kg result in a dose of 1 and 0.1 mg/kg, respectively. Memantine is approved for symptomatic treatment of Alzheimer's disease was used as a reference compound.
LPS was dissolved in saline and prepared at a concentration of 0.0125 mg/ml and given intraperitoneally (i.p.) at a dosage volume of 20 ml/kg to yield a dose of 0.25 mg/kg ([…]).
Four to five weeks old male CD-1 mice (Janvier; Le Genest St Isle - France) were used for the study.
LPS was injected i.p. 2 weeks prior the T-maze trial. Compound 1a was tested at doses of 0.5, 2, 8, 16, and 32 mg/kg administered orally (p.o.) for 14 days with last treatment given 60 min before the T-maze trial. Compound 5a was tested at the doses of 1.25, 2.5, 5, 10, and 20 mg/kg administered orally (p.o.) for 14 days with last treatment given 60 min before the T-maze trial. LPS was injected i.p. 2 weeks prior the T-maze trial.
The T-maze apparatus was made of gray Plexiglas with a main stem (55 cm long×10 cm wide×20 cm high) and two arms (30 cm long×10 cm wide×20 cm high) positioned at a 90-degree angle relative to the main stem. A start box (15 cm long×10 cm wide) was separated from the main stem by a guillotine door. Horizontal doors were also provided to close specific arms during the force choice alternation task.
The experimental protocol consisted of a single session, which started with one “forced-choice” trial, followed by 14 “free-choice” trials. In the “forced-choice” trial, the animal was confined 5 seconds in the start arm and was then released while either the left or right goal arm was blocked by a horizontal door. […]

[2] = tested on: Rat primary cortical neuron cultures; experiment: Neuroprotection of rat primary cortical neurons against neurotoxic insults (Cell Titer-Glo viability); type: cell-based
Excerpt: HGF/MET signaling activation is expected to protect cells, including neurons, from cell death. […] Hydrogen peroxide (H2O2) treatment produces toxic oxidative stress. Bacteria-derived lipopolysaccharide (LPS) treatment induces inflammatory cell death. Treatment with excess glutamate (Glut) produces excitotoxicity in neuron cultures. Treatment with 1-methyl-4-phenylpyridinium (MPP^+) causes cell death by inhibition of mitochondrial function.
Cells were then subjected to individual conditional insults for 24 hours at the following concentrations: H2O2 at 1 uM, LPS at 1 uM, glutamate at 25 uM, or MPP+ at 500 uM. All treatments contained recombinant human HGF (R&D Systems) at a concentration of 5 ng/ml. MK-801 (Dizocilpine) is a pore blocker of the N-Methyl-D-aspartate (NMDA) receptor, a glutamate receptor, and was used as a positive control.
Data was normalized to DMSO+HGF control set at 100% cell viability.
Data are reported as statistical significance vs. insult control, with NS=not significant, +=p<0.05, ++=p<0.01, and +++=p<0.001.

[3] = tested on: Rat primary cortical neuron cultures; conditions: LPS 24 h
Experimental: To assess the neuroprotective effect of compound treatment against inflammatory insult, primary cultured cortical neurons were subjected to lipopolysaccharide (LPS) treatment for 24h along with various compound doses of compounds of Formula (I) or Compound A19. […] Rat primary cortical neuron cultures were grown at 37° C., 5% C02 in Complete Neurobasal Medium supplemented with B27/GDNF/BDNF containing 10% FBS until maturity. 25 μl of culture volume were seeded in a 384-well plate at 5,000 cells/well, and treated with 1 μM, 100 nM, 10 nM, 1 nM, or 0.1 nM of test compound for 15 minutes. Cells were then subjected to 1 μM LPS challenge for 24 hours. Luminescence measurements to assess relative levels of ATP were performed on an Envision plate reader (Perkin Elmer). Data for DMSO control were set to 100% cell viability, and each group (n=4) were averaged and presented as mean±SEM.

Q: For `CCC(C)CN1CC2N(C(=O)c3ccc(C(F)(F)F)cc3)CCC(=O)N2[C@@H](C)C1=O` (some centres unmarked) [Compound 1a], which “Reversal of LPS-induced cognitive deficit in T-maze (result in words)” value ([1]; ANOVA, Fisher's PLSD, p<0.05, doses as in the value) is on record?
A: significant reversal of LPS-induced cognitive deficits at 2 mg/kg; also recorded: trending at 8 and 32 mg/kg; also recorded: reversed the LPS-induced cognitive disruption

Q: And the “Spontaneous alternation (%) Mean” value ([1]; Compound 1a 0.5 mg/kg p.o. daily 14 days)?
A: 49%

Q: And the “Spontaneous alternation (%) Mean” value ([1]; Compound 1a 0.5 mg/kg p.o. daily 14 days, listed as Cmpd 1a)?
A: 48.6%

Q: What about the “Recovery (%)” value ([1]; Compound 1a 0.5 mg/kg p.o.) of the same molecule?
A: 17%

Q: And the “Spontaneous alternation (%) Mean” value ([1]; Compound 1a 2 mg/kg p.o. daily 14 days)?
A: 59%

Q: What about the “Spontaneous alternation (%) Mean” value ([1]; Compound 1a 2 mg/kg p.o. daily 14 days, listed as Cmpd 1a) of the same molecule?
A: 58.6%

Q: And the “Recovery (%)” value ([1]; Compound 1a 2 mg/kg p.o.)?
A: 56%

Q: What about the “Spontaneous alternation (%) Mean” value ([1]; Compound 1a 8 mg/kg p.o. daily 14 days) of the same molecule?
A: 56%

Q: And the “Spontaneous alternation (%) Mean” value ([1]; Compound 1a 8 mg/kg p.o. daily 14 days, listed as Cmpd 1a)?
A: 56.4%

Q: And the “Recovery (%)” value ([1]; Compound 1a 8 mg/kg p.o.)?
A: 47%

Q: And the “Spontaneous alternation (%) Mean” value ([1]; Compound 1a 16 mg/kg p.o. daily 14 days)?
A: 51%

Q: What about the “Spontaneous alternation (%) Mean” value ([1]; Compound 1a 16 mg/kg p.o. daily 14 days, listed as Cmpd 1a) of the same molecule?
A: 51.4%

Q: And the “Recovery (%)” value ([1]; Compound 1a 16 mg/kg p.o.)?
A: 28%

Q: And the “Spontaneous alternation (%) Mean” value ([1]; Compound 1a 32 mg/kg p.o. daily 14 days)?
A: 56%

Q: What about the “Spontaneous alternation (%) Mean” value ([1]; Compound 1a 32 mg/kg p.o. daily 14 days, listed as Cmpd 1a) of the same molecule?
A: 55.7%

Q: And the “Recovery (%)” value ([1]; Compound 1a 32 mg/kg p.o.)?
A: 44%

Q: And the “Statistical significance vs. insult control (cell viability)” value ([2]; Glutamate (25 uM) insult, [Compound 1a] 0.1 nM + HGF (5 ng/ml))?
A: +++ (+++=p<0.001)

Q: And the “Statistical significance vs. insult control (cell viability)” value ([2]; Glutamate (25 uM) insult, [Compound 1a] 1 nM + HGF (5 ng/ml))?
A: +++ (+++=p<0.001)

Q: What about the “Statistical significance vs. insult control (cell viability)” value ([2]; Glutamate (25 uM) insult, [Compound 1a] 100 nM (second column headed 100 nM) + HGF (5 ng/ml)) of the same molecule?
A: +++ (+++=p<0.001)

Q: What about the “Statistical significance vs. insult control (cell viability)” value ([2]; Glutamate (25 uM) insult, [Compound 1a] 100 nM + HGF (5 ng/ml)) of the same molecule?
A: +++ (+++=p<0.001)

Q: What about the “Statistical significance vs. insult control (cell viability)” value ([2]; Glutamate (25 uM) insult, [Compound 1a] 1 uM + HGF (5 ng/ml)) of the same molecule?
A: +++ (+++=p<0.001)

Q: And the “Statistical significance vs. insult control (cell viability)” value ([2]; H2O2 (1 uM) insult, [Compound 1a] 0.1 nM + HGF (5 ng/ml))?
A: +++ (+++=p<0.001)

Q: And the “Statistical significance vs. insult control (cell viability)” value ([2]; H2O2 (1 uM) insult, [Compound 1a] 1 nM + HGF (5 ng/ml))?
A: +++ (+++=p<0.001)

Q: What about the “Statistical significance vs. insult control (cell viability)” value ([2]; H2O2 (1 uM) insult, [Compound 1a] 100 nM (second column headed 100 nM) + HGF (5 ng/ml)) of the same molecule?
A: +++ (+++=p<0.001)

Q: And the “Statistical significance vs. insult control (cell viability)” value ([2]; H2O2 (1 uM) insult, [Compound 1a] 100 nM + HGF (5 ng/ml))?
A: +++ (+++=p<0.001)

Q: And the “Statistical significance vs. insult control (cell viability)” value ([2]; H2O2 (1 uM) insult, [Compound 1a] 1 uM + HGF (5 ng/ml))?
A: +++ (+++=p<0.001)

Q: What about the “Neuroprotection against the cohort of insults (result in words)” value ([2]; H2O2, glutamate, LPS, MPP+, broad range of concentrations) of the same molecule?
A: effective neuroprotective treatment at a broad range of concentrations against the entire cohort of insults tested

Q: What about the “Statistical significance vs. insult control (cell viability)” value ([2]; LPS (1 uM) insult, [Compound 1a] 0.1 nM + HGF (5 ng/ml)) of the same molecule?
A: +++ (+++=p<0.001)

Q: And the “Statistical significance vs. insult control (cell viability)” value ([2]; LPS (1 uM) insult, [Compound 1a] 100 nM (second column headed 100 nM) + HGF (5 ng/ml))?
A: +++ (+++=p<0.001)

Q: What about the “Statistical significance vs. insult control (cell viability)” value ([2]; LPS (1 uM) insult, [Compound 1a] 100 nM + HGF (5 ng/ml)) of the same molecule?
A: +++ (+++=p<0.001)

Q: And the “Statistical significance vs. insult control (cell viability)” value ([2]; LPS (1 uM) insult, [Compound 1a] 1 uM + HGF (5 ng/ml))?
A: +++ (+++=p<0.001)

Q: And the “Statistical significance vs. insult control (cell viability)” value ([2]; MPP+ (500 uM) insult, [Compound 1a] 0.1 nM + HGF (5 ng/ml))?
A: +++ (+++=p<0.001)

Q: What about the “Statistical significance vs. insult control (cell viability)” value ([2]; MPP+ (500 uM) insult, [Compound 1a] 1 nM + HGF (5 ng/ml)) of the same molecule?
A: +++ (+++=p<0.001)

Q: And the “Statistical significance vs. insult control (cell viability)” value ([2]; MPP+ (500 uM) insult, [Compound 1a] 100 nM (second column headed 100 nM) + HGF (5 ng/ml))?
A: +++ (+++=p<0.001)

Q: And the “Statistical significance vs. insult control (cell viability)” value ([2]; MPP+ (500 uM) insult, [Compound 1a] 100 nM + HGF (5 ng/ml))?
A: +++ (+++=p<0.001)

Q: And the “Statistical significance vs. insult control (cell viability)” value ([2]; MPP+ (500 uM) insult, [Compound 1a] 1 uM + HGF (5 ng/ml))?
A: +++ (+++=p<0.001)

Q: And the “Significance of neuroprotection vs 1 uM LPS” value (from here on “Significance … vs 1 uM LPS”) ([3]; dose 0.1 nM)?
A: +++ (+++ indicates p<0.001)

Q: What about the “Significance … vs 1 uM LPS” value ([3]; dose 1 nM) of the same molecule?
A: +++ (+++ indicates p<0.001)

Q: What about the “Significance … vs 1 uM LPS” value ([3]; dose 10 nM) of the same molecule?
A: +++ (+++ indicates p<0.001)

Q: And the “Significance … vs 1 uM LPS” value ([3]; dose 100 nM)?
A: +++ (+++ indicates p<0.001)

Q: And the “Significance … vs 1 uM LPS” value ([3]; dose 1 μM)?
A: +++ (+++ indicates p<0.001)
